According to publication PMC6028838, “A new terpene coumarin microbial transformed by Mucor polymorphosporus induces apoptosis of human gastric cancer cell line MGC-803” (Archives of Pharmacal Research, 2018):

Key:
[1] = tested on: human gastric cancer cell line MGC-803; assay: MTT antiproliferation assay, MGC-803 cells; assay type: cell-based; details: 48 h incubation, mean ± SD of triplicate experiments
Description: (§1) The human gastric cancer cell line MGC-803 and human normal gastric epithelial cell line GES-1 were cultured in DMEM containing penicillin (100 U/mL), streptomycin (100 μg/mL), and 10% FBS at 37 °C with 5% CO2. Cells that used in experiments were passaged at least three times.
(§2) Cells were seeded in 96-well plates at a density of 5 × 10^4/well and cultured at 37 °C with 5% CO2 for 24 h. And then, compounds (1–5) in various concentrations were introduced with incubation for another 48 h. Finally, 10 μL MTT (5 mg/mL) was added to each well. After 4 h incubation, the medium was removed and 150 μL DMSO was added. Absorbance was read on a Microplate Reader at 570 nm (Bio Tek, Thenceforth, USA) (Li et al. [2014]). The MTT assay aims to evaluate the antiproliferative effects of the test compounds in MGC-803 cells and the cytotoxic effects in GES-1 cells.

[2] = tested on: human normal gastric epithelial cell line GES-1; assay: MTT cytotoxicity assay, GES-1 cells; assay type: cell-based; details: GES1, 48 h incubation, mean ± SD of triplicate experiments
Description: as §1, §2

[3] = Solubility in aqueous media; assay type: physicochemical; details: thermodynamic equilibrating conditions, compared with 2′-Z auraptene
MGC-803 cells = assay: Annexin V-FITC/PI apoptosis assay by flow cytometry; assay type: cell-based, human; details: MGC-803 cells, 1.0, 2.0, 4.0 μM, 24 h, compared with the control group
Description: The apoptosis effect of 2′-Z auraptene A (2) in MGC-803 cells was examined using the Annexin V-FITC/PI detection kit, according to the description of previously reported (Bakar et al. [2016]). Briefly, cells were seeded and treated with compound 2 (0, 1.0, 2.0, 4.0 μM) for 24 h. Cells were harvested and washed twice with cold PBS before incubating with annexin V and PI for 30 min in dark. And then the stained cells were detected and analyzed on FACS Calibur flow cytometry.

[4] = tested on: Bax, Bcl-2 and cleaved caspase-3 in MGC-803 cells; assay: Western blot of apoptosis-related proteins; assay type: cell-based, human; details: MGC-803 cells, 1.0, 2.0, 4.0 μM, 24 h
Description: The detection of levels of apotosis-related proteins in MGC-803 cells was performed according to the reported western blot method (Zhang et al. [2015a]). Briefly, cells were treated with compound 2 (0, 1.0, 2.0, 4.0 μM) for 24 h and then harvested to detect the protein concentration using the BCA method. Total cellular protein was separated by an SDS/PAGE gel and transferred onto PVDF membranes using a semidry electroblotter. The membrane was blocked with non-fat milk solution (5%) for 1 h, and incubated subsequently with primary antibody at 4 °C overnight. Then TBST was used to wash the primary antibody and incubated with secondary antibody for 1 h at room temperature. Protein bands were visualized by enhanced chemiluminescence (ECL) and β-actin was used as a normalizing control.

IC50 [1]	limitation of solubility in aqueous media [3]	SMILES	IC50 [2]	cellular apoptotic rates (MGC-803 cells)	level of Bax protein [4]	level of Bcl-2 protein [4]	level of cleaved caspase-3 protein [4]
4.75 ± 1.02 µM	–	C/C(=C/CC/C(C)=C\COc1ccc2ccc(=O)oc2c1)CO [Compound 3, 7-(((2′Z,6′Z)-9′-hydroxy-3′,7′-dimethylocta-2′,6′-dien-1′-yl)oxy)-2H-chromen-2-one]	25.6 ± 2.12 µM	–	–	–	–
10.8 ± 1.83 µM	–	C/C(=C/C(O)C/C(C)=C\COc1ccc2ccc(=O)oc2c1)CO (stereo not drawn) [Compound 5, 7-(((2′Z,6′Z)-5′,9′-hydroxy-3′,7′-dimethylocta-2′,6′-dien-1′-yl)oxy)-2H-chromen-2-one]	35.5 ± 2.21 µM	–	–	–	–
0.78 ± 0.13 µM	improved	C/C(=C/COc1ccc2ccc(=O)oc2c1)CCCO [Compound 2, 2′-Z auraptene A]	46 ± 3.11 µM	increased significantly in a dose-dependent manner	increase	reduction	increase
6.78 ± 2.06 µM	–	C/C(=C/CC(O)/C(C)=C\COc1ccc2ccc(=O)oc2c1)CO (stereo not drawn) [Compound 4, 7-(((2′Z,6′Z)-4′,9′-hydroxy-3′,7′-dimethylocta-2′,6′-dien-1′-yl)oxy)-2H-chromen-2-one]	33.8 ± 1.46 µM	–	–	–	–

SMILES	IC50 [1]	limitation of solubility in aqueous media [3]	IC50 [2]	cellular apoptotic rates (MGC-803 cells)	level of Bax protein [4]	level of Bcl-2 protein [4]	level of cleaved caspase-3 protein [4]
CC(C)=CCC/C(C)=C\COc1ccc2ccc(=O)oc2c1 [Compound 1, (Z)-7-((3′,7′-dimethylocta-2′,6′-dien-1′-yl)oxy)-2H-chromen-2-one]	10.4 ± 0.86 µM	–	57 ± 2.31 µM	–	–	–	–
